{
  "source": "patent USRE38103E1",
  "about": "“5-methanesulfonamido-1-indanones as an inhibitor of cyclooxygenase-2” (Merck Frosst Canada & Co., priority 1992, dated 2003)",
  "key": {"cyclooxygenase-2": {"molecular_target": "T1, cyclooxygenase-2 (Homo sapiens, UniProt P35354)", "T1 construct": "Cells used for whole cell assays, and from which microsomes were prepared for microsomal assays, were human osteosarcoma 143 cells; endogenous in cells; host or cells: human osteosarcoma 143 cells (whole cells or microsomes)", "T1 sequence (P35354 18-604)": "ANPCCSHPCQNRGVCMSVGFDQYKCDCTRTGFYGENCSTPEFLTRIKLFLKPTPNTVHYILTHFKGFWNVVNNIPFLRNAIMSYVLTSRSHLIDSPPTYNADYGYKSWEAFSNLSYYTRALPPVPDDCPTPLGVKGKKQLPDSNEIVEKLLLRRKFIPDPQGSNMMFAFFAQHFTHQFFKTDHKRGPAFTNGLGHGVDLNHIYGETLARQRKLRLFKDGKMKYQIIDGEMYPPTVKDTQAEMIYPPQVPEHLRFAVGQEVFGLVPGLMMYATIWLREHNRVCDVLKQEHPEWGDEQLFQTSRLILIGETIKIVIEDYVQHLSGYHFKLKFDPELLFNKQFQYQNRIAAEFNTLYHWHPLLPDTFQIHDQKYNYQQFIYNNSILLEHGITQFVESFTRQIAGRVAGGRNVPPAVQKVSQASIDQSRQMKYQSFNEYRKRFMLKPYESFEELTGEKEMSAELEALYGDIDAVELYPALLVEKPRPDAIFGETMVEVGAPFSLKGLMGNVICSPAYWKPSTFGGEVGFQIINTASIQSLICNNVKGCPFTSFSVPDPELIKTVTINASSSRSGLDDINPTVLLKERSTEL", "experiment": "Inhibition of cyclooxygenase-2 activity (PGE2 synthesis in response to arachidonic acid, radioimmunoassay; whole cell and microsomal assays)", "assay_type": "cell-based", "conditions": "for IC50: read-out: COX-2 IC50", "method": "(§1) Compounds were tested as inhibitors of cyclooxygenase activity in whole cell and microsomal cyclooxygenase assays. Both of these assays measured prostaglandin E2 synthesis in response to arachidonic acid, using a radioimmunoassay. Cells used for whole cell assays, and from which microsomes were prepared for microsomal assays, were human osteosarcoma 143 cells (which specifically express cyclooxygenase-2) and human U-937 cells (which specifically express cyclooxygenase-1). In these assays, 100% activity is defined as the difference between prostaglandin E2 synthesis in the absence and presence of arachidonate addition.\n(§2) In the assay, inhibition is determined by measuring the amount of prostaglandin E2 (PGE2) synthesized in the presence of arachidonic acid, cyclooxygenase-1 or cyclooxygenase-2 and a putative inhibitor."}, "[1]": {"experiment": "Monkey pharmacokinetics (Cmax, t1/2)", "assay_type": "in vivo"}, "paw edema": {"test_system": "paw edema", "experiment": "Rat paw edema assay (carrageenan)", "assay_type": "in vivo", "conditions": "po; for Rat Paw EDEMA ED30: 1 hr before carrageenan, paw volume 3 hr later; for Rat Paw Edema ED50: table of prepared examples", "method": "One hr later, a line was drawn using a permanent marker at the level above the ankle in one hind paw to define the area of the paw to be monitored. The paw volume (VO) was measured using a plethysmometer (Ugo-Basile, Italy) based on the principle of water displacement. […] The animals were sacrificed by CO2 aphyxiation and the absence or presence of stomach lesions scored. Data were compared with the vehicle-control values and percent inhibition calculated. […] At least 6 animals were used at each concentration All treatment groups were coded to eliminate observer bias."}, "cyclooxygenase-1": {"molecular_target": "T2, cyclooxygenase-1 (Homo sapiens, UniProt P23219)", "T2 construct": "human U-937 cells (which specifically express cyclooxygenase-1); endogenous in cells; host or cells: human U-937 cells (whole cells or microsomes)", "T2 sequence (P23219 24-599)": "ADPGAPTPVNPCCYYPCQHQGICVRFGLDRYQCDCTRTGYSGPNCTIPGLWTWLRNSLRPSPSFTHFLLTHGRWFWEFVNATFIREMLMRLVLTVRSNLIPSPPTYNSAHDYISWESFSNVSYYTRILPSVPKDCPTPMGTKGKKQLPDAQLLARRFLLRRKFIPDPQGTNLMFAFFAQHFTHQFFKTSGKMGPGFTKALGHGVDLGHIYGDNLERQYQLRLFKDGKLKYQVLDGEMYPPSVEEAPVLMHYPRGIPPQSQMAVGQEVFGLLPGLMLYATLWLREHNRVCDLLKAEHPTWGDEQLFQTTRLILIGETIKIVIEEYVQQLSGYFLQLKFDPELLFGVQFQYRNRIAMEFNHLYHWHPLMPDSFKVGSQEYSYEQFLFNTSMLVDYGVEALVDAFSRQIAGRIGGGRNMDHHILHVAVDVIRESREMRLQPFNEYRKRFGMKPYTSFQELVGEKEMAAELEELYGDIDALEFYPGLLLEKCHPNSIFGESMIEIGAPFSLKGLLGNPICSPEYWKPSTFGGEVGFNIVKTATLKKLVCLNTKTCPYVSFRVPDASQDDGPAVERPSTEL", "experiment": "Inhibition of cyclooxygenase-1 activity (PGE2 synthesis in response to arachidonic acid, radioimmunoassay; whole cell and microsomal assays)", "assay_type": "cell-based", "conditions": "for COX-1 inhibition (result in words, with concentration): human U-937 cells, concentration stated in the cell; for IC50: table of prepared examples, read-out: COX-1 IC50", "method": "as §1, §2"}, "Rat plasma levels": {"experiment": "Rat plasma levels", "assay_type": "in vivo"}},
  "note": "Where two headings read alike, the source gives them in different places.",
  "data": [
    {"smiles": "CS(=O)(=O)Nc1cc2c(cc1Oc1ccccc1)C(=O)CC2", "note": "[Compound 1, reference compound]", "values": [
      {"measurement": "IC50", "setting": "cyclooxygenase-2; table of prepared examples", "result": 30, "unit": "nM"}
    ]},
    {"smiles": "CS(=O)(=O)Nc1cc2c(cc1Oc1ccc(Br)cc1)C(=O)CC2", "note": "[Compound 2]", "values": [
      {"measurement": "IC50", "setting": "cyclooxygenase-2; table of prepared examples", "result": 9, "unit": "nM"}
    ]},
    {"smiles": "CS(=O)(=O)Nc1cc2c(cc1Oc1ccc(F)cc1F)C(=O)CC2", "note": "[Compound 3, Flosulide, reference compound]", "values": [
      {"measurement": "Monkey Cmax", "setting": "[1]; 10 mpk", "result": "17 @ 10 mpk μg/ml"},
      {"measurement": "t½ Monkey (n = 2) (Estimated)", "setting": "[1]; n = 2, estimated", "result": "<4", "unit": "h"},
      {"measurement": "Rat Paw EDEMA ED30", "setting": "paw edema", "result": "1.1 ± .4 mpk"},
      {"measurement": "Rat Paw Edema ED50", "setting": "paw edema", "result": 0.62, "unit": "mpk"},
      {"measurement": "COX-1 inhibition (result in words, with concentration)", "setting": "cyclooxygenase-1", "result": "Inactive at 50 μM"},
      {"measurement": "IC50", "setting": "cyclooxygenase-1", "result": "> 50", "unit": "µM"},
      {"measurement": "Rat Plasma Levels @ 1 hr", "setting": "Rat plasma levels; 20 mpk", "result": "48 @ 20 mpk μg/ml"}
    ]},
    {"smiles": "CS(=O)(=O)Nc1cc2c(cc1Oc1ccc(Cl)cc1Cl)C(=O)CC2", "note": "[Compound 4, 5-Methanesulfonamido-6-(2,4-dichlorophenoxy)-1-indanone]", "values": [
      {"measurement": "Rat Paw EDEMA ED30", "setting": "paw edema", "result": 0.22, "unit": "mpk"},
      {"measurement": "Rat Paw Edema ED50", "setting": "paw edema", "result": 0.22, "unit": "mpk"},
      {"measurement": "COX-1 inhibition (result in words, with concentration)", "setting": "cyclooxygenase-1", "result": "Inactive at 100 μM"},
      {"measurement": "IC50", "setting": "cyclooxygenase-1", "result": "> 100", "unit": "µM"},
      {"measurement": "IC50", "setting": "cyclooxygenase-2; human osteosarcoma 143 cells, PGE2 synthesis", "result": 8, "unit": "nM"}
    ]},
    {"smiles": "CS(=O)(=O)Nc1cc2c(cc1Sc1ccccc1)C(=O)CC2", "note": "[Compound 6]", "values": [
      {"measurement": "Rat Paw Edema ED50", "setting": "paw edema", "result": 0.16, "unit": "mpk"},
      {"measurement": "IC50", "setting": "cyclooxygenase-1", "result": "> 100", "unit": "µM"},
      {"measurement": "IC50", "setting": "cyclooxygenase-2; table of prepared examples", "result": 50, "unit": "nM"}
    ]},
    {"smiles": "CS(=O)(=O)Nc1cc2c(cc1Sc1ccc(F)cc1)C(=O)CC2", "note": "[Compound 8]", "values": [
      {"measurement": "IC50", "setting": "cyclooxygenase-2; table of prepared examples", "result": 100, "unit": "nM"}
    ]},
    {"smiles": "CS(=O)(=O)Nc1cc2c(cc1Sc1ccc(Cl)cc1)C(=O)CC2", "note": "[Compound 9]", "values": [
      {"measurement": "IC50", "setting": "cyclooxygenase-2; table of prepared examples", "result": 100, "unit": "nM"}
    ]},
    {"smiles": "CS(=O)(=O)Nc1cc2c(cc1Sc1ccc(I)cc1)C(=O)CC2", "note": "[Compound 11]", "values": [
      {"measurement": "IC50", "setting": "cyclooxygenase-2; table of prepared examples", "result": 10, "unit": "nM"}
    ]},
    {"smiles": "CS(=O)(=O)Nc1cc2c(cc1Sc1ccc(F)cc1F)C(=O)CC2", "note": "[Compound 12, 5-Methanesulfonamido-6-(2,4-difluorophenylthio)-1-indanone]", "values": [
      {"measurement": "Cmax", "setting": "[1]; in vivo, 5 mg/kg, 5 mpk", "result": 35000, "unit": "ng/mL"},
      {"measurement": "half-life", "setting": "[1]; in vivo, n = 2, estimated, read-out: t½ Monkey (n = 2) (Estimated)", "result": "> 540", "unit": "min"},
      {"measurement": "Rat Paw EDEMA ED30", "setting": "paw edema", "result": "0.3 ± .1 mpk"},
      {"measurement": "Rat Paw Edema ED50", "setting": "paw edema", "result": 0.3, "unit": "mpk"},
      {"measurement": "IC50", "setting": "cyclooxygenase-1", "result": "> 10", "unit": "µM"},
      {"measurement": "COX-2 % INHB", "setting": "cyclooxygenase-2; CONC 10 nM", "result": 43, "unit": "%"},
      {"measurement": "COX-2 % INHB", "setting": "cyclooxygenase-2; CONC 100 nM", "result": 87, "unit": "%"},
      {"measurement": "COX-2 % INHB", "setting": "cyclooxygenase-2; CONC 1000 nM", "result": 91, "unit": "%"},
      {"measurement": "Rat Plasma Levels @ 1 hr", "setting": "Rat plasma levels; 10 mpk", "result": "70 @ 10 mpk μg/ml"}
    ]},
    {"smiles": "CS(=O)(=O)Nc1cc2c(cc1Sc1ccc(Cl)cc1F)C(=O)CC2", "note": "[Compound 14]", "values": [
      {"measurement": "IC50", "setting": "cyclooxygenase-2; table of prepared examples", "result": 13, "unit": "nM"}
    ]},
    {"smiles": "CS(=O)(=O)Nc1cc2c(cc1Sc1ccc(F)cc1Cl)C(=O)CC2", "note": "[Compound 16]", "values": [
      {"measurement": "IC50", "setting": "cyclooxygenase-2; table of prepared examples", "result": 11, "unit": "nM"}
    ]},
    {"smiles": "Cc1ccccc1Sc1cc2c(cc1NS(C)(=O)=O)CCC2=O", "note": "[Compound 19]", "values": [
      {"measurement": "IC50", "setting": "cyclooxygenase-2; table of prepared examples", "result": 100, "unit": "nM"}
    ]},
    {"smiles": "Cc1ccc(Sc2cc3c(cc2NS(C)(=O)=O)CCC3=O)cc1", "note": "[Compound 20]", "values": [
      {"measurement": "IC50", "setting": "cyclooxygenase-2; table of prepared examples", "result": 50, "unit": "nM"}
    ]},
    {"smiles": "CS(=O)(=O)Nc1cc2c(cc1Sc1ccc(C(F)(F)F)cc1)C(=O)CC2", "note": "[Compound 22]", "values": [
      {"measurement": "IC50", "setting": "cyclooxygenase-2; table of prepared examples", "result": 50, "unit": "nM"}
    ]},
    {"smiles": "C=Cc1ccc(Sc2cc3c(cc2NS(C)(=O)=O)CCC3=O)cc1", "note": "[Compound 24]", "values": [
      {"measurement": "IC50", "setting": "cyclooxygenase-2; table of prepared examples", "result": 100, "unit": "nM"}
    ]},
    {"smiles": "COc1ccc2c(c1)c(CC(=O)O)c(C)n2C(=O)c1ccc(Cl)cc1", "note": "[INDOMETHACIN, Indomethacin, reference compound]", "values": [
      {"measurement": "Rat Paw EDEMA ED30", "setting": "paw edema", "result": "1.1 ± .3 mpk"}
    ]}
  ]
}
